# Assay results taken from PubChem BioAssay AID330 (DTP/NCI, 2004).
# Values joined by “and” are separate entries in the source; they are usually repeats but may differ in a detail not shown here. Identical values can stand only once. Inconclusive results and toxic doses are left out.
# System: P388 leukemia ip, CD2F1 mice, survival T/C
# Assay: NCI In Vivo Anticancer Drug Screen. Data for tumor model P388 Leukemia (intraperitoneal) in CD2F1 (CDF1) mice
# Settings: endpoint: median survival time, higher = longer survival
# Summary of the method: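 Mice carrying the transplanted tumor received test compound or vehicle. Survival was recorded in each group, and the value is the treated-group measurement divided by that of the vehicle-treated control group.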
# [1] = dose: 12.5 mg/kg/injection, schedule: Q01DX005 (ip), vehicle: Klucel (hydroxypropylcellulose) (HPC)
# [2] = dose: 25.0 mg/kg/injection, schedule: Q01DX005 (ip), vehicle: Klucel (hydroxypropylcellulose) (HPC)
# [3] = dose: 60.0 mg/kg/injection, schedule: Q01DX005 (ip), vehicle: saline with Tween-80
# [4] = dose: 6.25 mg/kg/injection, schedule: Q04DX003 (ip), vehicle: saline
# [5] = dose: 200.0 mg/kg/injection, schedule: Q01DX009 (ip), vehicle: Klucel (hydroxypropylcellulose) (HPC)
# [6] = dose: 50.0 mg/kg/injection, schedule: Q01DX005 (ip), vehicle: Klucel (hydroxypropylcellulose) (HPC)
# [7] = dose: 100.0 mg/kg/injection, schedule: Q01DX005 (ip), vehicle: Klucel (hydroxypropylcellulose) (HPC)
# [8] = dose: 200.0 mg/kg/injection, schedule: Q01DX005 (ip), vehicle: Klucel (hydroxypropylcellulose) (HPC)
# [9] = dose: 50.0 mg/kg/injection, schedule: Q01DX009 (ip), vehicle: Klucel (hydroxypropylcellulose) (HPC)
# [10] = dose: 100.0 mg/kg/injection, schedule: Q01DX009 (ip), vehicle: Klucel (hydroxypropylcellulose) (HPC)
# [11] = dose: 15.0 mg/kg/injection, schedule: Q01DX005 (ip), vehicle: saline with Tween-80
# [12] = dose: 30.0 mg/kg/injection, schedule: Q01DX005 (ip), vehicle: saline with Tween-80
# [13] = dose: 100.0 mg/kg/injection, schedule: Q01DX001 (ip), vehicle: Klucel (hydroxypropylcellulose) (HPC)
# [14] = dose: 200.0 mg/kg/injection, schedule: Q01DX001 (ip), vehicle: Klucel (hydroxypropylcellulose) (HPC)
smiles,measurement,setting,value
O=C(O)c1nn(-c2ccccc2)c2c1CS(=O)(=O)c1ccccc1-2,T/C,"dose: 100.0 mg/kg/injection, schedule: Q04DX002 (ip), vehicle: saline with Tween-80",100 % of control
same,T/C,"dose: 200.0 mg/kg/injection, schedule: Q04DX002 (ip), vehicle: saline with Tween-80",106 % of control
same,T/C,"dose: 400.0 mg/kg/injection, schedule: Q04DX002 (ip), vehicle: saline with Tween-80",104 % of control
Cc1ccccc1C1N=C2Oc3ccccc3C=C2C(=O)N1 (stereo not given),T/C,[1],100 % of control and 102 % of control and 98 % of control
same,T/C,[2],93 % of control
COCCCOC(=O)NCCCCC(N)C(=O)O (stereo not given),T/C,"dose: 50.0 mg/kg/injection, schedule: Q01DX005 (ip), vehicle: saline",98 % of control
same,T/C,"dose: 100.0 mg/kg/injection, schedule: Q01DX005 (ip), vehicle: saline",106 % of control
same,T/C,"dose: 200.0 mg/kg/injection, schedule: Q01DX005 (ip), vehicle: saline",100 % of control
Cc1cc(=O)c2ccc(Cl)c(C)c2[nH]1,T/C,[3],110 % of control
same,T/C,"dose: 120.0 mg/kg/injection, schedule: Q01DX005 (ip), vehicle: saline with Tween-80",93 % of control
same,T/C,"dose: 240.0 mg/kg/injection, schedule: Q01DX005 (ip), vehicle: saline with Tween-80",103 % of control
C[C@@H]1CN(C(=O)CCOS(C)(=O)=O)[C@@H](C)CN1C(=O)CCOS(C)(=O)=O,T/C,"dose: 3.13 mg/kg/injection, schedule: Q04DX003 (ip), vehicle: saline",113 % of control
same,T/C,[4],122 % of control
same,T/C,"dose: 264.0 mg/kg/injection, schedule: Q04DX003 (ip), vehicle: saline with Tween-80",218 % of control
same,T/C,"dose: 400.0 mg/kg/injection, schedule: Q04DX003 (ip), vehicle: saline with Tween-80",118 % of control
O=C1c2ccccc2C(=O)c2c1ccc1c2OCO1,T/C,"dose: 5.0 mg/kg/injection, schedule: Q01DX005 (ip), vehicle: Klucel (hydroxypropylcellulose) (HPC)",96 % of control
same,T/C,"dose: 10.0 mg/kg/injection, schedule: Q01DX005 (ip), vehicle: Klucel (hydroxypropylcellulose) (HPC)",87 % of control
same,T/C,"dose: 20.0 mg/kg/injection, schedule: Q01DX005 (ip), vehicle: Klucel (hydroxypropylcellulose) (HPC)",86 % of control and 88 % of control
same,T/C,"dose: 40.0 mg/kg/injection, schedule: Q01DX005 (ip), vehicle: Klucel (hydroxypropylcellulose) (HPC)",95 % of control
C/C(=N\NC(=S)N1CCSCC1)c1ccccn1,T/C,"dose: 6.25 mg/kg/injection, schedule: Q01DX005 (ip), vehicle: saline with Tween-80",113 % of control
same,T/C,"dose: 12.5 mg/kg/injection, schedule: Q01DX005 (ip), vehicle: saline with Tween-80",91 % of control
C=CCC1=CC2(OC)C(=O)C(OC)(OC)C1C1C(OC)(OC)C(=O)C(OC)=CC12CC=C (stereo not given),T/C,"dose: 18.75 mg/kg/injection, schedule: Q01DX009 (ip), vehicle: Klucel (hydroxypropylcellulose) (HPC)",114 % of control and 93 % of control
same,T/C,"dose: 37.5 mg/kg/injection, schedule: Q01DX009 (ip), vehicle: Klucel (hydroxypropylcellulose) (HPC)",99 % of control
same,T/C,"dose: 75.0 mg/kg/injection, schedule: Q01DX009 (ip), vehicle: Klucel (hydroxypropylcellulose) (HPC)",102 % of control and 112 % of control
same,T/C,"dose: 150.0 mg/kg/injection, schedule: Q01DX009 (ip), vehicle: Klucel (hydroxypropylcellulose) (HPC)",94 % of control
same,T/C,[5],94 % of control
CCCN(CCC)c1ccc(C(=O)Oc2c(C)cccc2OC)cc1,T/C,[6],93 % of control
same,T/C,[7],102 % of control
same,T/C,[8],90 % of control
O=C(CC1(Cl)C(F)(F)C(F)(F)C1(F)F)c1ccccc1,T/C,[4],100 % of control
same,T/C,"dose: 12.5 mg/kg/injection, schedule: Q04DX003 (ip), vehicle: saline",100 % of control
same,T/C,"dose: 25.0 mg/kg/injection, schedule: Q04DX003 (ip), vehicle: saline",100 % of control
CCCCN1C(=O)C(=O)N(CCc2ccc(OC)c(OC)c2)C1=O,T/C,[9],91 % of control
same,T/C,[10],86 % of control
same,T/C,[5],91 % of control
CCOC(=O)NC(CC(C)C)C(=O)NC(CC(C)C)C(=O)OC(C)(C)C (stereo not given),T/C,"dose: 50.0 mg/kg/injection, schedule: Q01DX005 (ip), vehicle: saline with Tween-80",98 % of control
same,T/C,"dose: 100.0 mg/kg/injection, schedule: Q01DX005 (ip), vehicle: saline with Tween-80",99 % of control
same,T/C,"dose: 200.0 mg/kg/injection, schedule: Q01DX005 (ip), vehicle: saline with Tween-80",100 % of control
CC(=O)N1C(CO)C(O)C(O)C1n1cnc2c(N)ncnc21 (stereo not given),T/C,[6],95 % of control
same,T/C,[7],100 % of control
same,T/C,[8],100 % of control
same,T/C,"dose: 300.0 mg/kg/injection, schedule: Q01DX005 (ip), vehicle: Klucel (hydroxypropylcellulose) (HPC)",100 % of control
COc1ccc2c(c1OC)C(O)N1CCc3cc4c(cc3C1=C2C(=O)c1ccccc1)OCO4 (stereo not given),T/C,[1],100 % of control and 106 % of control
same,T/C,[2],100 % of control and 94 % of control
same,T/C,[6],103 % of control (2×) and 123 % of control
same,T/C,[7],111 % of control
COc1ccc(CSC(=S)Nc2ccccc2C(F)(F)F)cc1,T/C,"dose: 50.0 mg/kg/injection, schedule: Q01DX009 (ip), vehicle: suspension in saline",93 % of control
same,T/C,"dose: 100.0 mg/kg/injection, schedule: Q01DX009 (ip), vehicle: suspension in saline",91 % of control
same,T/C,"dose: 200.0 mg/kg/injection, schedule: Q01DX009 (ip), vehicle: suspension in saline",92 % of control
CCc1ncc(C(O)c2ccc(Cl)cc2)n1Cc1ccccc1 (stereo not given),T/C,"dose: 60.0 mg/kg/injection, schedule: Q01DX005 (ip), vehicle: Klucel (hydroxypropylcellulose) (HPC)",93 % of control
same,T/C,"dose: 120.0 mg/kg/injection, schedule: Q01DX005 (ip), vehicle: Klucel (hydroxypropylcellulose) (HPC)",93 % of control
same,T/C,"dose: 240.0 mg/kg/injection, schedule: Q01DX005 (ip), vehicle: Klucel (hydroxypropylcellulose) (HPC)",90 % of control
N#CSc1c(-c2ccccc2)c2c(N)[nH]c(=O)nc2[nH]c1=O,T/C,[11],107 % of control
same,T/C,[12],99 % of control
same,T/C,[3],90 % of control
CC(=O)Nc1ccn(C)c1[N+](=O)[O-],T/C,[13],100 % of control
same,T/C,[14],97 % of control
same,T/C,"dose: 400.0 mg/kg/injection, schedule: Q01DX001 (ip), vehicle: Klucel (hydroxypropylcellulose) (HPC)",102 % of control
CC(=O)C(=O)c1ccc(O)cc1O,T/C,"dose: 10.0 mg/kg/injection, schedule: Q01DX009 (ip), vehicle: saline with Tween-80",96 % of control
same,T/C,"dose: 20.0 mg/kg/injection, schedule: Q01DX009 (ip), vehicle: saline with Tween-80",103 % of control
same,T/C,"dose: 40.0 mg/kg/injection, schedule: Q01DX009 (ip), vehicle: saline with Tween-80",107 % of control
CN(C)C(=O)CC(c1ccccc1)C(CO)c1ccccc1 (stereo not given),T/C,"dose: 25.0 mg/kg/injection, schedule: Q01DX001 (ip), vehicle: Klucel (hydroxypropylcellulose) (HPC)",88 % of control
same,T/C,"dose: 50.0 mg/kg/injection, schedule: Q01DX001 (ip), vehicle: Klucel (hydroxypropylcellulose) (HPC)",91 % of control
same,T/C,[13],89 % of control
same,T/C,[14],88 % of control
Cc1[nH]c(=O)[nH]c(=O)c1/C=C/C(=O)NC(CO)CS(C)=O (stereo not given),T/C,"dose: 0.07 mg/kg/injection, schedule: Q01DX009 (ip), vehicle: water",108 % of control
same,T/C,"dose: 0.15 mg/kg/injection, schedule: Q01DX009 (ip), vehicle: water",106 % of control and 100 % of control
same,T/C,"dose: 0.3 mg/kg/injection, schedule: Q01DX009 (ip), vehicle: water",92 % of control and 110 % of control
same,T/C,"dose: 0.6 mg/kg/injection, schedule: Q01DX009 (ip), vehicle: water",98 % of control and 110 % of control
same,T/C,"dose: 1.2 mg/kg/injection, schedule: Q01DX009 (ip), vehicle: water",112 % of control
same,T/C,"dose: 2.0 mg/kg/injection, schedule: Q01DX009 (ip), vehicle: water",118 % of control
same,T/C,"dose: 4.0 mg/kg/injection, schedule: Q01DX009 (ip), vehicle: water",120 % of control
same,T/C,"dose: 16.0 mg/kg/injection, schedule: Q01DX009 (ip), vehicle: water",111 % of control
same,T/C,"dose: 40.0 mg/kg/injection, schedule: Q01DX009 (ip), vehicle: water",102 % of control
same,T/C,"dose: 64.0 mg/kg/injection, schedule: Q01DX009 (ip), vehicle: water",116 % of control and 123 % of control
same,T/C,"dose: 128.0 mg/kg/injection, schedule: Q01DX009 (ip), vehicle: water",124 % of control
Cc1ccc(NC(=S)C#N)c(C)c1,T/C,[11],102 % of control
same,T/C,[12],98 % of control
same,T/C,[3],98 % of control and 106 % of control
CC(C)(C)[N]=[V]([Cl])([Cl])[Cl],T/C,[1],98 % of control
same,T/C,[2],91 % of control
same,T/C,[6],98 % of control and 91 % of control
CSc1nc(N)c(C(=O)N(c2ccccc2)c2ccccc2)s1,T/C,[9],100 % of control
same,T/C,[10],108 % of control
same,T/C,[5],98 % of control
